Experimental data: patent US20130005644A1, “CYCLIC AGONISTS AND ANTAGONISTS OF C5A RECEPTORS AND G PROTEIN-COUPLED RECEPTORS” (PROMICS PTY LIMITED, priority 1997, published 2013)
Where two headings read alike, the source gives them in different places. Where a SMILES comes first, the peptide text is derived from it. [ ]: non-standard residue; d: D form. dCha = N[C@H](CC1CCCCC1)C(=O)O

T1: C5a receptor (Homo sapiens, UniProt P21730)
T1 construct: endogenous in cells; host or cells: fresh human polymorphonuclear leukocytes (PMNs), intact cells
T1 sequence (P21730 1-350): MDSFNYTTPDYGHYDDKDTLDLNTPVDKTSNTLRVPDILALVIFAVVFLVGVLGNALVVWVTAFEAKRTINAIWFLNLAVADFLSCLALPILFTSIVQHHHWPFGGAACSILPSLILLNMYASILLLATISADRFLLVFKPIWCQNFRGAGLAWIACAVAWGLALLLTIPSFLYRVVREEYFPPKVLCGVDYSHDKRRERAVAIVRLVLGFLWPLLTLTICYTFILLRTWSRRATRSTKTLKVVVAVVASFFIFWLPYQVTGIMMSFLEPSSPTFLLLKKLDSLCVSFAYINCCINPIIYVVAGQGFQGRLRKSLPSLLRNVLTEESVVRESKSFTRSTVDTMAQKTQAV

T2: C5aR (Homo sapiens, UniProt P21730)
T2 construct: endogenous in cells; host or cells: fresh human polymorphonuclear leukocytes (PMNs), intact cells
T2 sequence (P21730 1-350): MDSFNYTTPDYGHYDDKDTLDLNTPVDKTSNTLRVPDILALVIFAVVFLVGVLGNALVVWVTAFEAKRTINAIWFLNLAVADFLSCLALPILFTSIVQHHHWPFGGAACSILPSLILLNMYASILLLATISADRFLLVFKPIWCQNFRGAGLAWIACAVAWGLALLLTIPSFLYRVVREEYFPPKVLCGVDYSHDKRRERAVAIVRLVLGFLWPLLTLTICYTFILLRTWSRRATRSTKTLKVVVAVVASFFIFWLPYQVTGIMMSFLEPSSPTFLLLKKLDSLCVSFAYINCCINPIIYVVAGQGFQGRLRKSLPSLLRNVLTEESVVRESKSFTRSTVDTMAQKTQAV


How the values were obtained:
human fetal artery = conditions: C5a agonist analogues; cited from earlier work
C5a receptor [1] = target: T1, C5a receptor; conditions: human PMN; C5a agonist analogues; read-out: PMN Enzyme Release EC50; cited from earlier work
C5aR [2] = target: T2, C5aR; conditions: cited from earlier work
C5aR [3] = target: T2, C5aR; assay: Receptor-binding assay: inhibition of 125I-C5a binding to intact human PMNs
[4] = test system: C5a-induced neutropenia in Wistar rats; assay: C5a-induced neutropenia in vivo; conditions: 1 mg/kg i.v. given prior to 2 μg C5a i.v.
Procedure: Compounds were evaluated in an acute model of C5a-induced neutropenia. Transient neutropenia maximises 5 min after i.v. C5a and is profound, with >90% of circulating neutrophils disappearing from circulation at effective doses of C5a, as shown in FIG. 8. The neutropenia is due to transient adherence of circulating neutrophils to the vascular endothelium.

[5] = test system: LPS-induced neutropenia in Wistar rats; assay: LPS-induced neutropenia and haematocrit change; assay type: in vivo
Procedure: LPS causes rapid neutropenia in rats. If this effect of LPS is blocked by C5a antagonists, then C5a may be of major importance in the acute effects of LPS, and the results shown in FIG. 9 were in agreement with this hypothesis. C5a antagonists were injected (bolus i.v.) 10 min prior to challenge with LPS. Rats were anaesthetised, and blood samples (0.3 ml) were taken for measurements of PMNs. PMNs are isolated and quantified.

C5a receptor [6] = target: T1, C5a receptor; assay: Agonist activity in human PMNs; assay type: cell-based
Procedure: Cells were isolated as previously described (Sanderson et al, 1995) and incubated with cytochalasin B (5 μg/mL, 15 min, 37° C.). Hank's Balanced Salt solution containing 0.15% gelatin and peptide was added on to a 96 well plate (total volume 100 μL/well), followed by 25 μL cells (4×10^6/mL). To assess the capacity of each peptide to antagonise C5a, cells were incubated for 5 min at 37° C. with each peptide, followed by addition of C5a (100 nM) and further incubation for 5 min. Then 50 μL of sodium phosphate (0.1M, pH 6.8) was added to each well, the plate was cooled to room temperature, and 25 μL of a fresh mixture of equal volumes of dimethoxybenzidine (5.7 mg/mL) and H2O2 (0.51%) was added to each well. The reaction was stopped at 10 min by addition of 2% sodium azide. Absorbances were measured at 450 nm in a Bioscan 450 plate reader, corrected for control values (no peptide), and analysed by non-linear regression.

C5a receptor [7] = target: T1, C5a receptor; assay: Myeloperoxidase release from human PMNs mediated by 100 nM C5a (antagonist potency); assay type: cell-based; conditions: for IC50: 50% inhibition of C5a (100 nM)-caused release of MPO from PMNs, mean ± SE, read-out: pD2 ± SE (antagonist potency) (converted)
[8] = test system: carrageenan-induced paw oedema in Wistar rats; assay: Carrageenan-induced rat paw oedema; assay type: in vivo; conditions: 1 mg/kg i.p. 30 min prior to carrageenan, after 180 and 270 min
Procedure: Alternatively, a routine carrageenan paw oedema was developed in Wistar rats by administering a pedal injection of carrageenan to elicit oedema which is visible in 2 h and maximised in 4 h. […] See Fairlie, D. P. et al (1987). Also see Walker and Whitehouse (1978).
Paw swelling was measured for up to 4.5 hr.

[9] = PMN C5aR, Finch et al, 1997, read-out: Binding Affinity IC50
[10] = dose range 0.1 nM-1 mM, human PMNs
[11] = 50% inhibition in the binding of [125I]C5a to intact PMNs, mean ± SE, read-out: pD2 ± SE (binding) (converted)

| Agonist Activity (C5a receptor [6]; [10]) | Molecule | EC50 (human fetal artery) [µM] | EC50 (C5a receptor [1]) [µM] | IC50 (C5aR [2]; [9]) [µM] | also measured |
| --- | --- | --- | --- | --- | --- |
|  | YSFKDMQLGR [Compound 2, C5a agonist analogue] | 9.6 | 92 | 1.3 |  |
|  | C5a65-74 (ISHKDMQLGR) [Compound 1, decapeptide C-terminus of C5a] | > 1000 | > 1000 | > 1000 | IC50 (C5aR [2]; literature values (Finch et al, 1997; Kawai et al, 1991), read-out: Receptor Affinity IC50): > 1000 µM |
|  | N=C(N)NCCC[C@H]1NC(=O)[C@H](Cc2c[nH]c3ccccc23)NC(=O)[C@@H](CC2CCCCC2)NC(=O)[C@@H]2CCCN2C(=O)[C@H](Cc2c[nH]c3ccccc23)NC(=O)[C@H](Cc2ccccc2)NC1=O [Compound 19, [FWPdChaWr]] (cyclo(FWP[dCha]W[dR]); ring closure inferred) |  |  |  | pD2 ± SE (binding) (C5aR [3]; 50% inhibition in the binding of [125I]C5a to intact PMNs, mean ± SE): 4.37 ± 0.36 |
|  | F-[OPdChaWR] |  |  |  | C5a-induced neutropenia [4]: inhibits C5a-induced neutropenia; LPS-induced neutropenia ([5]; 1 mg/kg i.v. 10 min prior to i.v. LPS, rats): inhibits neutropenia; LPS-induced changes in haematocrit ([5]; 0.03-10 mg/kg i.v., 10 min prior to LPS 1 mg/kg i.v., Wistar rats): inhibition of LPS-induced neutropenia and changes in haematocrit |
| No | CN[C@@H](Cc1ccccc1)C(=O)N[C@@H](CCCCN)C(=O)N1CCC[C@H]1C(=O)N[C@H](CC1CCCCC1)C(=O)N[C@@H](Cc1c[nH]c2ccccc12)C(=O)N[C@@H](CCCNC(=N)N)C(=O)O [Compound 9, MeFKP(dCha)WR] |  |  |  |  |
| No | CN[C@@H](Cc1ccccc1)C(=O)N[C@@H](CCCCN)C(=O)N1CCC[C@H]1C(=O)N[C@H](CC1CCCCC1)C(=O)N[C@@H](Cc1c[nH]c2ccccc12)C(=O)N[C@H](CCCNC(=N)N)C(N)=O [Compound 8, MeFKP(dCha) Wr-CONH2] |  |  |  | reduction of antagonist activity versus 7 (C5a receptor [7]; conversion to the amide): approximately 5 fold; reduction of receptor-affinity versus 7 (C5aR [3]; conversion to the amide): approximately 5 fold |
|  | CC(=O)N[C@@H](Cc1ccccc1)C(=O)N[C@H]1CCCCNC(=O)[C@H](CCCNC(=N)N)NC(=O)[C@H](Cc2c[nH]c3ccccc23)NC(=O)[C@@H](CC2CCCCC2)NC(=O)[C@@H]2CCCN2C1=O [Compound 18] |  |  |  | Agonist Activity (C5a receptor [6]; Table 5, cyclic molecules): No |
|  | YSFKDMPLaR [Compound 3, C5a agonist analogue] | 0.5 | 72 | 3.7 |  |
|  | N=C(N)NCCC[C@@H]1NC(=O)[C@H](Cc2c[nH]c3ccccc23)NC(=O)[C@@H](CC2CCCCC2)NC(=O)[C@@H]2CCCN2C(=O)[C@@H](NC(=O)[C@@H](N)Cc2ccccc2)CCCCNC1=O [Compound 28, F-[KPdChaWR]] |  |  |  | IC50 (C5a receptor [7]): 0.204 µM; IC50 (C5aR [3]; [11]): 0.316 µM |
|  | C5a37-46-ahxYSFKPMPLaR [Compound 5] | 0.06 | 5.9 | 0.7 |  |
| no agonist properties | CN[C@@H](Cc1ccccc1)C(=O)N[C@@H](CCCCN)C(=O)N1CCC[C@H]1C(=O)N[C@H](CC1CCCCC1)C(=O)N[C@@H](Cc1c[nH]c2ccccc12)C(=O)N[C@H](CCCNC(=N)N)C(=O)O [Compound 7, N-methylphenylalanine-lysine-proline-D-cyclohexylalanine-tryptophan-D-arginine, reference compound] |  |  |  | antagonist activity against C5a and agonist decapeptide analogue 4 (C5a receptor [7]; human PMNs): shows antagonist activity; Agonist Activity (C5a receptor [6]; dose range 0.1 nM-1 mM, human PMNs, listed as SEQ. ID NO: 7): No |
|  | C5a12-20-ahxYSFKPMPLaR [Compound 6] | 0.08 | 0.7 | 0.07 |  |
|  | N=C(N)NCCC[C@H]1NC(=O)[C@H](Cc2c[nH]c3ccccc23)NC(=O)[C@@H](CC2CCCCC2)NC(=O)[C@@H]2CCCN2C(=O)[C@@H](NC(=O)[C@@H](N)Cc2ccccc2)CCCCNC1=O [Compound 26, F-[KPdChaWr]] |  |  |  | IC50 (C5a receptor [7]): 2.82 µM; IC50 (C5aR [3]; [11]): 8.13 µM |
| No | CC(=O)N[C@@H](Cc1ccccc1)C(=O)N[C@H]1CCCCNC(=O)[C@@H](CCCNC(=N)N)NC(=O)[C@H](Cc2c[nH]c3ccccc23)NC(=O)[C@@H](CC2CCCCC2)NC(=O)[C@@H]2CCCN2C1=O [Compound 11, Ac-F-[KP(dCha)Wr] |  |  |  | Agonist Activity (C5a receptor [6]; Table 5, cyclic molecules): No |
| No | CC(=O)N[C@@H](Cc1ccccc1)C(=O)N[C@H]1CCCNC(=O)[C@@H](CCCNC(=N)N)NC(=O)[C@H](Cc2c[nH]c3ccccc23)NC(=O)[C@@H](CC2CCCCC2)NC(=O)[C@@H]2CCCN2C1=O [Compound 12, Ac-F-[OP(dCha)Wr] |  |  |  | times less active than 17 in vitro as a C5a antagonist in PMNs (C5a receptor [7]): 100 times; increase in receptor-binding affinity over decapeptide C-terminus of C5a (1) (C5aR [3]): 10^4; Agonist Activity (C5a receptor [6]; Table 5, cyclic molecules): No; development of carrageenan paw oedema (paw swelling) [8]: significantly inhibits development of the oedema |
|  | N=C(N)NCCC[C@@H]1NC(=O)[C@H](Cc2c[nH]c3ccccc23)NC(=O)[C@@H](CC2CCCCC2)NC(=O)[C@@H]2CCCN2C(=O)[C@@H](NC(=O)[C@@H](N)Cc2ccccc2)CCNC1=O [Compound 15, F-[X^2PdChaWR]] |  |  |  | IC50 (C5a receptor [7]): 0.0437 µM; inhibition of the action of C5a and the binding of 125I-C5a to its receptor (C5a receptor [7]; in vitro on human PMNs): potent inhibitors at nM concentrations; IC50 (C5aR [3]; [11]): 0.316 µM; IC50 (C5aR [3]; Table 5, cyclic molecules, read-out: Receptor Affinity): 0.3 µM; Agonist Activity (C5a receptor [6]; Table 5, cyclic molecules): No |
| Yes | C5a: human recombinant C5a, 74 amino acid complement glycoprotein (protein) TLQKKIEEIAAKYKHSVVKKCCYDGACVNNDETCEQRAARISLGPRCIKAFTECCVVASQLRANISHKDMQLGR | 0.02 | 0.03 | 0.0006 |  |
